# Experimental data as given in patent US8912121B2, “Herbicidal compositions comprising 4-amino-3-chloro-5-fluoro-6-(4-chloro-2-fluoro-3-methoxyphenyl)pyridine-2-carboxylic acid or a derivative thereof and certain PS II inhibitors” (Dow Agrosciences LLC, priority 2012, dated 2014).
# Columns and labels:
# [1] = tested on: KCHSC (Kochia scoparia, kochia); assay: Postemergence herbicidal activity of mixtures in cereal crops, greenhouse; type: in vivo, Kochia scoparia (L.) Schrad.
# Experimental: (§1) Seeds of the desired test plant species were planted in Sun Gro MetroMix® 306 planting mixture, which typically has a pH of 6.0 to 6.8 and an organic matter content of about 30 percent, in plastic pots with a surface area of 103.2 square centimeters (cm^2). When required to ensure good germination and healthy plants, a fungicide treatment and/or other chemical or physical treatment was applied. The plants were grown for 7-36 days in a greenhouse with an approximate 14 hour photoperiod which was maintained at about 18° C. during the day and about 17° C. during the night. Nutrients and water were added on a regular basis and supplemental lighting was provided with overhead metal halide 1000-Watt lamps as necessary. The plants were employed for testing when they reached the second or third true leaf stage.
# (§2) Treatments consisted of the benzyl ester of 4-amino-3-chloro-5-fluoro-6-(4-chloro-2-fluoro-3-methoxy-phenyl)pyridine-2-carboxylic acid (Compound A), formulated as an SC, a second cereal herbicide alone and then both in combination.
# (§3) Other herbicidal components were applied on an active ingredient basis and included PSII-inhibiting herbicides.
# (§4) Measured aliquots of benzyl ester of 4-amino-3-chloro-5-fluoro-6-(4-chloro-2-fluoro-3-methoxy-phenyl)pyridine-2-carboxylic acid (Compound A) were placed in 25 milliliter (mL) glass vials and diluted in a volume of 1.25% (v/v) Agri-Dex® crop oil concentrate to obtain stock solutions. Compound requirements are based upon a 12 mL application volume at a rate of 187 liters per hectare (L/ha). Spray solutions of the second cereal herbicide and experimental compound mixtures were prepared by adding the stock solutions to the appropriate amount of dilution solution to form 12 mL spray solution with active ingredients in two- and three-way combinations. Formulated compounds were applied to the plant material with an overhead Mandel track sprayer equipped with an 8002E nozzle calibrated to deliver 187 L/ha over an application area of 0.503 square meters (m^2) at a spray height of 18 inches (46 cm) above average plant canopy. Control plants were sprayed in the same manner with the solvent blank.
# (§5) The treated plants and control plants were placed in a greenhouse as described above and watered by sub-irrigation to prevent wash-off of the test compounds. After 20-22 days, the condition of the test plants as compared with that of the control plants was determined visually and scored on a scale of 0 to 100 percent where 0 corresponds to no injury and 100 corresponds to complete kill.
# (§6) Colby's equation was used to determine the herbicidal effects expected from the mixtures (Colby, S. R. 1967. Calculation of the synergistic and antagonistic response of herbicide combinations. Weeds 15:20-22).
# (§7) The following equation was used to calculate the expected activity of mixtures containing two active ingredients, A and B: Expected=A+B−(A×B/100)
# [2] = tested on: SASKR (Salsola tragus, Russian thistle); assay: as above; type: in vivo, Salsola tragus L.
# Experimental: as §1, §2, §3, §4, §5, §6, §7
# [3] = tested on: BRAPP (Brachiaria platyphylla, broadleaf signalgrass); assay: Pre-emergence soil-applied mixtures, greenhouse; type: in vivo, Brachiaria platyphylla (Groseb.) Nash
# Description: Seeds or nutlets of the desired test plant species were planted in a soil matrix prepared by mixing a loam soil (32 percent silt, 23 percent clay, and 45 percent sand, with a pH of about 6.5 and an organic matter content of about 1.9 percent) and calcareous grit in an 80 to 20 ratio. The soil matrix was contained in plastic pots with a volume of 1 quart and a surface area of 83.6 square centimeters (cm^2).
# Treatments consisted of the benzyl ester of 4-amino-3-chloro-5-fluoro-6-(4-chloro-2-fluoro-3-methoxy-phenyl)pyridine-2-carboxylic acid (compound A) formulated as an SC (suspension concentrate) and various herbicidal components alone and in combination. Forms of compound A were applied on an acid equivalent basis.
# Other herbicidal components were applied on an acid equivalent or active ingredient basis and included the PSII-inhibiting herbicides, atrazine formulated as Atrazine® 90WDG, metribuzin formulated as Metribuzin 75DF, simazine formulated as Princep Caliber 90, tebuthiuron formulated as Spike 80DF, cyanazine (technical grade material), hexazinone (technical grade material), linuron (technical grade material), terbuthylazine (technical grade material), and diuron formulated as Diuron 4L.
# Treatment requirements were calculated based upon the rates being tested, the concentration of active ingredient or acid equivalent in the formulation, and a 12 mL application volume at a rate of 187 L/ha.
# For treatments comprised of formulated compounds, measured amounts of compounds were placed individually in 25 mL glass vials and diluted in a volume of 1.25% (v/v) Agri-Dex® crop oil concentrate (COC) to obtain 12× stock solutions. […] Application solutions were prepared by adding an appropriate amount of each stock solution (e.g., 1 mL) and diluted to the appropriate final concentrations with the addition of 10 mL of an aqueous mixture of 1.25% (v/v) COC so that the final spray solutions contained 1.25% (v/v) COC.
# For treatments comprised of technical compounds, weighed amounts can be placed individually in 25 mL glass vials and dissolved in a volume of 97:3 (v/v) acetone/DMSO to obtain 12× stock solutions. […] Application solutions can be prepared by adding an appropriate amount of each stock solution (e.g., 1 mL) and diluted to the appropriate final concentrations with the addition of 10 mL of an aqueous mixture of 1.5% (v/v) COC so that the final spray solutions contain 1.25% (v/v) COC. When technical materials are used, the concentrated stock solutions can be added to the spray solutions so that the final acetone and DMSO concentrations of the application solutions are 16.2% and 0.5%, respectively.
# For treatments comprised of formulated and technical compounds, weighed amounts of the technical materials can be placed individually in 25 mL glass vials and dissolved in a volume of 97:3 (v/v) acetone/DMSO to obtain 12× stock solutions, and measured amounts of the formulated compounds can be placed individually in 25 mL glass vials and diluted in a volume of 1.5% (v/v) COC or water to obtain 12× stock solutions. […] Application solutions can be prepared by adding an appropriate amount of each stock solution (e.g., 1 mL) and diluted to the appropriate final concentrations with the addition of an appropriate amount of an aqueous mixture of 1.5% (v/v) COC so that the final spray solutions contain 1.25% (v/v) COC. As required, additional water and/or 97:3 (v/v) acetone/DMSO can be added to individual application solutions so that the final acetone and DMSO concentrations of the application solutions being compared are 8.1% and 0.25%, respectively.
# All stock solutions and applications solutions were visually inspected for compound compatibility prior to application. Spray solutions were applied to the soil with an overhead Mandel track sprayer equipped with a 8002E nozzles calibrated to deliver 187 L/ha over an application area of 0.503 m^2 at a spray height of 18 inches (46 cm) above average pot height. […]
# [4] = Compound A Benzyl Ester 2.5 g ai/ha
# [5] = Compound A Benzyl Ester 5 g ai/ha
# [6] = Compound A Benzyl Ester 10 g ai/ha
compound,measurement,setting,value
"COc1c(Cl)ccc(-c2nc(C(=O)OCc3ccccc3)c(Cl)c(N)c2F)c1F [Compound A Benzyl Ester, benzyl ester of 4-amino-3-chloro-5-fluoro-6-(4-chloro-2-fluoro-3-methoxy-phenyl)pyridine-2-carboxylic acid]",Visual Weed Control (%)-21 DAA KCHSC Obs,[1]; [4],20%
same,Visual Weed Control (%)-21 DAA KCHSC Obs,[1]; [5],41%
same,Visual Weed Control (%)-21 DAA KCHSC Obs,[1]; [6],62%
same,Visual Weed Control (%)-21 DAA SASKR Obs,[2]; [4],15%
same,Visual Weed Control (%)-21 DAA SASKR Obs,[2]; [5],50%
same,Visual Weed Control (%)-21 DAA SASKR Obs,[2]; [6],67%
same,Visual Weed Control (%) - 27 DAA BRAPP Obs,"[3]; Compound A Benzyl Ester 16 g ae/ha, Table 28",0%
same,Visual Weed Control (%)-28 DAA BRAPP Obs,[3]; Compound A Benzyl Ester 16 g ae/ha,0%
same,Visual Weed Control (%) - 27 DAA BRAPP Obs,"[3]; Compound A Benzyl Ester 32 g ae/ha, Table 27",0%
same,Visual Weed Control (%) - 27 DAA BRAPP Obs,"[3]; Compound A Benzyl Ester 32 g ae/ha, Table 28",0%
same,Visual Weed Control (%)-28 DAA BRAPP Obs,[3]; Compound A Benzyl Ester 32 g ae/ha,5%
